Literature values in patent publication US8288413B2, “Benzimidazolones which have activity at M1 receptor” (Glaxo Group Limited, priority 2005, dated 2012).

How the values were obtained:
[1] = in vivo
c-fos expression = settings: rats
[2] = test system: unilateral 6-OH-DA lesioned rats

In the case of `CCCCCCOc1nsnc1C1=CCCN(C)C1` [xanomeline], the amphetamine induced locomotion (rats) is given as “reverses”, the EPS liability (monkeys) is given as “without EPS liability” and the amphetamine-induced motor unrest (monkeys) is given as “reverses”. The conditioned avoidance [1] was “inhibit”, the “A9 dopamine cell firing” value (dopamine cell firing; A9) was “not A9” and the “A10 dopamine cell firing” value (dopamine cell firing; A10) was “inhibit”. The “c-fos expression in prefrontal cortex and nucleus accumbens” value (c-fos expression) was “induces”, the “c-fos expression in striatum” value (c-fos expression) was “not in striatum” and the “dopamine agonist driven turning” value [2] was “reverses”. For the same compound, the apomorphine induced climbing (mice) was “reverses”, the “psychotic symptoms such as suspiciousness, hallucinations and delusions” value (Alzheimer's patients; Alzheimer's patients) was “reduce” and the side effects (Alzheimer's patients; clinical use) was “dose-limiting peripheral cholinergic side effects”.
